Data on 25 compounds can be found in patent US20240228469A1, “PCSK9 INHIBITORS AND METHODS OF USE THEREOF” (AstraZeneca AB, priority 2022, published 2024).

What is called Kd is the free concentration of one partner at which half of the binding sites on the other are occupied at equilibrium, for simple one-to-one binding.

Chain of PCSK9 (Q8NBP7 31-692): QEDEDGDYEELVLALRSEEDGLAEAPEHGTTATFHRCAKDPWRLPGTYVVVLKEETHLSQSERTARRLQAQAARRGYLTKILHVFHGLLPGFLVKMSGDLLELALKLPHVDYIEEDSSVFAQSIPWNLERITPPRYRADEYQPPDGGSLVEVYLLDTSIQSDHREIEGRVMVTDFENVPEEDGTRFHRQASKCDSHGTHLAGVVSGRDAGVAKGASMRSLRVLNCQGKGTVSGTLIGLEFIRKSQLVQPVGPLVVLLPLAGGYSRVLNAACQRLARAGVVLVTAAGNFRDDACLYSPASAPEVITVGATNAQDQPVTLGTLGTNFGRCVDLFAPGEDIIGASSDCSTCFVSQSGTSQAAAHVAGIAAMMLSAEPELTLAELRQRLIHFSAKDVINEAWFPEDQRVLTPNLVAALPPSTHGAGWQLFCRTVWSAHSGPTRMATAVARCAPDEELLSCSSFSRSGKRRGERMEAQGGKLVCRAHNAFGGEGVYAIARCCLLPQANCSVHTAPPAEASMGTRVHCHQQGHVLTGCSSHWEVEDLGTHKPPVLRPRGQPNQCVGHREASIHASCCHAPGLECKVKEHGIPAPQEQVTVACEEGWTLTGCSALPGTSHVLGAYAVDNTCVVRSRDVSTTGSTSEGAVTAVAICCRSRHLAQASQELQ

This experiment deals with PCSK9 (Homo sapiens, UniProt Q8NBP7). Kind of experiment: Assay 2 Biophysical human PCSK9 assay (SPR, Biacore). It counts as binding. On the set-up: biotinylated human PCSK9 (31-692)-Avi-His6; His6 (C). The conditions noted are these: single-cycle kinetics, 30° C., geometric mean, read-out: Assay 2 (PCSK9 BIAcore DBA Cr) GMean Kd. How it is done:
The SPR binding experiments were performed on a Biacore S200 optical biosensor unit at 30° C. A Series S Sensor Chip SA that is designed to bind biotinylated molecules for interaction analysis in Biacore systems was equilibrated at room temperature prior to use. The running buffer for protein tethering and subsequent ligand binding experiments was 10 mM HEPES pH 7.4, 150 mM NaCl, 0.05% (v/v) Tween 20 pH 7.4.
For the surface tethering of PCSK9, biotinylated human PCSK9 (31-692)-Avi-His6 at a concentration of 0.5 mg/mL was used. Prior to the surface tethering, the surface was exposed to a solution of 50 mM NaOH, 500 mM NaCl via 3 consecutive injections of this solution with a contact time of 60 s and a flowrate of 10 μL min^−1 to remove non-conjugated streptavidin. The PCSK9 protein was diluted to a concentration of 20 μg/mL using running buffer and injected with a contact time of 180-300 s and a flowrate of 10 μL min^−1 over a single flow channel (typically flow channel 2 or flow channel 4) with the aim to achieve protein capture levels of >5000 response units (RU). Remaining biotin binding sites were blocked via 2 consecutive injections of a 10 μM D-biotin solution in running buffer with a contact time of 60 s and a flowrate of 10 μL min^−1 over all flow-channels. Flow-channels 1 and 3 typically served as a reference surface throughout the subsequent binding experiments.
The binding experiments were all performed at a flow rate of 30 PL min^−1 and by employing the method of single-cycle kinetics. This approach involves the sequential injection of a compound concentration series without regeneration steps. A contact time between 90-150 s was selected, which was followed by a 40 min dissociation phase to allow for a proper estimation of the dissociation rate constant. Test compounds were delivered in DMSO at a concentration of 10 mM and a digital dispenser HP D300 was used to set up the compound concentration series using 6 concentrations. The tested concentrations have been 30, 100, 300, 1000, 3000 and 10000 nM. Prior to injecting any compound, the surfaces were equilibrated by injecting running buffer over them in three separate pulses. The data collection rate was set to 10 Hz.
The raw sensorgrams of the compound injections were first subjected to reference subtraction (subtracting the signal from flow channel 1 and/or 3 from the signal from channels 2 and/or 4 respectively) and then blank subtraction (subtracting the signal from injecting DMSO controls from the reference subtracted data). The resulting double-referenced sensorgrams were then fitted using a 1:1 binding interaction model using the manufactures software package to extract kinetic- and affinity data. Active compounds have been defined by creating a detectable binding signal at the highest compound concentration ([…]) of 3 RUs. Kinetic- and affinity data on active compounds are only provided for those compounds where the binding signal at the highest compound concentration ([…]) is 50% of the theoretical maximum binding signal for a 1:1 binding interaction (Rmax, typically between 15-20 RUs) in order to enable a proper fitting of the data.
(In SPR one partner is held on a chip, and binding of the other changes the refractive index at the surface.)
For `Cn1c(=O)n(-c2ccc(N[C@H]3CC[C@H](Nc4ncc(C5CC5)nn4)C3)nc2)c2cc(C#N)ccc21` [Example 116, 3-(6-(((1S,3S)-3-((6-Cyclopropyl-1,2,4-triazin-3-yl)amino)cyclopentyl)amino)pyridin-3-yl)-1-methyl-2-oxo-2,3-dihydro-1H-benzo[d]imidazole-5-carbonitrile], the Kd worked out at 0.3 nM.
As for `Cc1cnc(N[C@H]2CC[C@H](Nc3ccc(-n4cccc(Cl)c4=O)cn3)C2)nn1` [Example 129, 3-Chloro-6′-(((1S,3S)-3-((6-methyl-1,2,4-triazin-3-yl)amino)cyclopentyl)amino)-2H-[1,3′-bipyridin]-2-one], the Kd worked out at 1.3 nM.
In the case of `COc1ccc(=O)n(-c2ccc(N[C@H]3CC[C@H](Nc4ncc(C)nn4)C3)nc2)c1` [Example 133, 5-Methoxy-6′-(((1S,3S)-3-((6-methyl-1,2,4-triazin-3-yl)amino)cyclopentyl)amino)-2H-[1,3′-bipyridin]-2-one], the Kd came out at 17 nM.
For `Cn1c(=O)n(-c2ccc(N[C@H]3CC[C@H](Nc4ncc(C5CC5)nn4)C3)nc2)c2ncccc21` [Example 63, 3-(6-(((1S,3S)-3-((6-Cyclopropyl-1,2,4-triazin-3-yl)amino)cyclopentyl)amino)pyridin-3-yl)-1-methyl-1,3-dihydro-2H-imidazo[4,5-b]pyridin-2-one] the value was 1.4 nM; for `Cc1cnc(N[C@H]2CC[C@H](Nc3ccc(-n4c(=O)ccc5cccnc54)cn3)C2)nn1` [Example 197, 1-(6-(((1S,3S)-3-((6-Methyl-1,2,4-triazin-3-yl)amino)cyclopentyl)amino)pyridin-3-yl)-1,8-naphthyridin-2(1H)-one], 2.3 nM; for `COc1cccn(-c2ccc(N[C@H]3CC[C@H](Nc4ncc(C)nn4)C3)nc2)c1=O` [Example 132, 3-Methoxy-6′-(((1S,3S)-3-((6-methyl-1,2,4-triazin-3-yl)amino)cyclopentyl)amino)-2H-[1,3′-bipyridin]-2-one], 1.5 nM.
As to `CN1CC(=O)N(c2ccc(N[C@H]3CC[C@H](Nc4ncc(C5CC5)nn4)C3)nc2)C1=O` [Example 57, 3-(6-(((1S,3S)-3-((6-Cyclopropyl-1,2,4-triazin-3-yl)amino)cyclopentyl)amino)pyridin-3-yl)-1-methylimidazolidine-2,4-dione], the Kd came out at 7.5 nM.
For `COc1cccn(-c2ccc(N[C@H]3CC[C@H](Nc4ncc(C5CC5)nn4)C3)nc2)c1=O` [Example 64, 6′-(((1S,3S)-3-((6-Cyclopropyl-1,2,4-triazin-3-yl)amino)cyclopentyl)amino)-3-methoxy-2H-[1,3′-bipyridin]-2-one] the value was 0.4 nM; for `O=c1c(C(F)(F)F)cccn1-c1ccc(N[C@H]2CC[C@H](Nc3ncc(C4CC4)nn3)C2)nc1` [Example 51, 6′-(((1S,3S)-3-((6-Cyclopropyl-1,2,4-triazin-3-yl)amino)cyclopentyl)amino)-3-(trifluoromethyl)-2H-[1,3′-bipyridin]-2-one], 0.9 nM.
For `Cc1cccn(-c2ccc(N[C@H]3CC[C@H](Nc4ncc(C5CC5)nn4)C3)nc2)c1=O` [Example 66, 6′-(((1S,3S)-3-((6-Cyclopropyl-1,2,4-triazin-3-yl)amino)cyclopentyl)amino)-3-methyl-2H-[1,3′-bipyridin]-2-one] the value was 1.5 nM; for `Cc1cnc(N[C@H]2CC[C@H](Nc3ccc(-n4cc(Cl)ccc4=O)cn3)C2)nn1` [Example 134, 5-Chloro-6′-(((1S,3S)-3-((6-methyl-1,2,4-triazin-3-yl)amino)cyclopentyl)amino)-2H-[1,3′-bipyridin]-2-one], 9.1 nM; for `O=c1ccncn1-c1ccc(N[C@H]2CC[C@H](Nc3ncc(C4CC4)nn3)C2)nc1` [Example 114, 3-(6-(((1S,3S)-3-((6-Cyclopropyl-1,2,4-triazin-3-yl)amino)cyclopentyl)amino)pyridin-3-yl)pyrimidin-4(3H)-one], 5.3 nM.
For the compound `Cc1cnc(N[C@H]2CC[C@H](Nc3ccc(-n4cccc(C(F)(F)F)c4=O)cn3)C2)nn1` [Example 135, 6′-(((1S,3S)-3-((6-Methyl-1,2,4-triazin-3-yl)amino)cyclopentyl)amino)-3-(trifluoromethyl)-2H-[1,3′-bipyridin]-2-one], the Kd was determined as 3.9 nM.
As for `O=c1ccc(Cl)cn1-c1ccc(N[C@H]2CC[C@H](Nc3ncc(C4CC4)nn3)C2)nc1` [Example 112, 5-Chloro-6′-(((1S,3S)-3-((6-cyclopropyl-1,2,4-triazin-3-yl)amino)cyclopentyl)amino)-2H-[1,3′-bipyridin]-2-one], the figure is 3.9 nM; as for `Cc1cnc(N[C@H]2CC[C@H](Nc3ccc(-n4cccc(-c5cnn(C)c5)c4=O)cn3)C2)nn1` [Example 198, 6′-(((1S,3S)-3-((6-Methyl-1,2,4-triazin-3-yl)amino)cyclopentyl)amino)-3-(1-methyl-1H-pyrazol-4-yl)-2H-[1,3′-bipyridin]-2-one], 3.8 nM.
`CN1C(=O)CN(c2ccc(N[C@H]3CC[C@H](Nc4ncc(C5CC5)nn4)C3)nc2)C1=O` [Example 62, 1-(6-(((1S,3S)-3-((6-Cyclopropyl-1,2,4-triazin-3-yl)amino)cyclopentyl)amino)pyridin-3-yl)-3-methylimidazolidine-2,4-dione]: the Kd was found to be 4.3 nM.
For `Cc1cnc(N[C@H]2CC[C@H](Nc3ccc(-n4c(=O)n(C)c5ccc(C#N)cc54)cn3)C2)nn1` [Example 210, 1-Methyl-3-(6-(((1S,3S)-3-((6-methyl-1,2,4-triazin-3-yl)amino)cyclopentyl)amino)pyridin-3-yl)-2-oxo-2,3-dihydro-1H-benzo[d]imidazole-5-carbonitrile] the value was 0.6 nM; for `Cc1cnc(N[C@H]2CC[C@H](Nc3ccc(-n4cccc(C)c4=O)cn3)C2)nn1` [Example 131, 3-Methyl-6′-(((1S,3S)-3-((6-methyl-1,2,4-triazin-3-yl)amino)cyclopentyl)amino)-2H-[1,3′-bipyridin]-2-one], 2.4 nM; for `N#Cc1cccn(-c2ccc(N[C@H]3CC[C@H](Nc4ncc(C5CC5)nn4)C3)nc2)c1=O` [Example 58, 6′-(((1S,3S)-3-((6-Cyclopropyl-1,2,4-triazin-3-yl)amino)cyclopentyl)amino)-2-oxo-2H-[1,3′-bipyridine]-3-carbonitrile], 2.2 nM.
For `Cc1cnc(N[C@H]2CC[C@H](Nc3ccc(-n4nccc(Cl)c4=O)cn3)C2)nn1` [Example 221, 4-Chloro-2-(6-(((1S,3S)-3-((6-methyl-1,2,4-triazin-3-yl)amino)cyclopentyl)amino)pyridin-3-yl)pyridazin-3(2H)-one] the value was 1.7 nM; for `N#Cc1ccc(=O)n(-c2ccc(N[C@H]3CC[C@H](Nc4ncc(C5CC5)nn4)C3)nc2)c1` [Example 56, 6′-(((1S,3S)-3-((6-Cyclopropyl-1,2,4-triazin-3-yl)amino)cyclopentyl)amino)-2-oxo-2H-[1,3′-bipyridine]-5-carbonitrile], 7.4 nM.
In the case of `O=c1c(OC(F)(F)F)cccn1-c1ccc(N[C@H]2CC[C@H](Nc3ncc(C4CC4)nn3)C2)nc1` [Example 52, 6′-(((1S,3S)-3-((6-Cyclopropyl-1,2,4-triazin-3-yl)amino)cyclopentyl)amino)-3-(trifluoromethoxy)-2H-[1,3′-bipyridin]-2-one], the dissociation constant (Kd) stood at 0.7 nM.
For `O=c1c(Cl)cccn1-c1ccc(N[C@H]2CC[C@H](Nc3ncc(C4CC4)nn3)C2)nc1` [Example 55, 3-Chloro-6′-(((1S,3S)-3-((6-cyclopropyl-1,2,4-triazin-3-yl)amino)cyclopentyl)amino)-2H-[1,3′-bipyridin]-2-one] the value was 0.4 nM; for `O=C(NC1COC1)c1cnc(N[C@H]2CC[C@H](Nc3ccc(-n4ccccc4=O)cn3)C2)nn1` [Example 70, N-(Oxetan-3-yl)-3-(((1S,3S)-3-((2-oxo-2H-[1,3′-bipyridin]-6′-yl)amino)cyclopentyl)amino)-1,2,4-triazine-6-carboxamide], 21 nM; for `COc1ccc(=O)n(-c2ccc(N[C@H]3CC[C@H](Nc4ncc(C5CC5)nn4)C3)nc2)c1` [Example 65, 6′-(((1S,3S)-3-((6-Cyclopropyl-1,2,4-triazin-3-yl)amino)cyclopentyl)amino)-5-methoxy-2H-[1,3′-bipyridin]-2-one], 5.8 nM.
